Each compound was assayed against T1, Human HPK1, catalytic domain (Homo sapiens, UniProt Q92918) (assay: HPK1-SLP76 TR-FRET Assay). Details: 75 pM HPK1, ATP 10 uM, SLP76 10 nM, 30 min pre-incubation, 60 min reaction.
T1 sequence (Q92918 1-346): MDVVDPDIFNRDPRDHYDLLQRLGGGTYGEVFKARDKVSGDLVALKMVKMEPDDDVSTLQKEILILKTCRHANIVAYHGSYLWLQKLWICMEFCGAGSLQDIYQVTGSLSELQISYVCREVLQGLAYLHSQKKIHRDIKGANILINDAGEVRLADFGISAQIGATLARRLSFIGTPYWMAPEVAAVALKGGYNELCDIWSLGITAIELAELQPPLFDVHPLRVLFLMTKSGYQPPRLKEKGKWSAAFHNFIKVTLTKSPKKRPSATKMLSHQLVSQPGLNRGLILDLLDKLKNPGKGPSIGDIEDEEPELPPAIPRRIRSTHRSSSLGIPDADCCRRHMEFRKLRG
Assay type: biochemical

| SMILES | IC50 |
| --- | --- |
| COc1cc2c(cc1Nc1ncc3ccc(-c4cnccc4C)cc3n1)CN(C)CC2 [Compound 1-2, N-(6-methoxy-2-methyl-1,2,3,4-tetrahydroisoquinolin-7-yl)-7-(4-methylpyridin-3-yl)quinazolin-2-amine] | 26.2 nM |
| COc1cc2c(cc1Nc1ncc3ccc(-c4c(C)cccc4F)cc3n1)CNCC2 [Compound 1-94, 7-(2-fluoro-6-methylphenyl)-N-(6-methoxy-1,2,3,4-tetrahydroisoquinolin-7-yl)quinazolin-2-amine] | 81.3 nM |
| COc1cc2c(cc1Nc1ncc3ccc(-c4cccc(C#N)c4)cc3n1)CNCC2 [Compound 1-65, 3-{2-[(6-methoxy-1,2,3,4-tetrahydroisoquinolin-7-yl)amino]quinazolin-7-yl}benzonitrile] | 120 nM |
| COc1cc2c(cc1Nc1ncc3ccc(-c4ccc5c(c4)COCC5)cc3n1)CNCC2 [Compound 1-76, 7-(3,4-dihydro-1H-2-benzopyran-7-yl)-N-(6-methoxy-1,2,3,4-tetrahydroisoquinolin-7-yl)quinazolin-2-amine] | 218 nM |
| CCNC(=O)c1ccc(-c2ccc3cnc(Nc4cc5c(cc4OC)CCN(C)C5)nc3c2)cn1 [Compound 1-23, N-ethyl-5-{2-[(6-methoxy-2-methyl-1,2,3,4-tetrahydroisoquinolin-7-yl)amino]quinazolin-7-yl}pyridine-2-carboxamide] | 693 nM |
| Cc1c(-c2cc3nc(Nc4ccc5c(c4)C(C)(C)OC5=O)ncc3cc2F)cnc2c1NCCO2 [Compound 1-112, 5-{[6-fluoro-7-(8-methyl-2,3-dihydro-1H-pyrido[2,3-b][1,4]oxazin-7-yl)quinazolin-2-yl]amino}-3,3-dimethyl-2-benzofuran-1(3H)-one] | 5.2 nM |
| COc1cc2c(cc1Nc1ncc3ccc(-c4cncc(CO)c4)cc3n1)CNCC2 [Compound 1-53, (5-{2-[(6-methoxy-1,2,3,4-tetrahydroisoquinolin-7-yl)amino]quinazolin-7-yl}pyridin-3-yl)methanol] | 5.6 nM |
| COc1cc2c(cc1Nc1ncc3ccc(-c4ccccc4-c4ccnn4C)cc3n1)CN(C)CC2 [Compound 1-109, N-(6-methoxy-2-methyl-1,2,3,4-tetrahydroisoquinolin-7-yl)-7-[2-(1-methyl-1H-pyrazol-5-yl)phenyl]quinazolin-2-amine] | 0.812 nM |
| Cc1c(-c2cc3nc(Nc4ccc(CS(=O)(=O)C(C)C)cc4)ncc3cc2F)cnc2c1NCCO2 [Compound 1-128, 6-fluoro-N-(4-((isopropylsulfonyl)methyl)phenyl)-7-(8-methyl-2,3-dihydro-1H-pyrido[2,3-b][1,4]oxazin-7-yl)quinazolin-2-amine] | 0.0828 nM |

Now from value to compound:

| IC50 | SMILES |
| --- | --- |
| 0.0117 nM | CCS(=O)(=O)Cc1ccc(Nc2ncc3c(N)c(F)c(-c4cnc5c(c4C)NCCO5)cc3n2)cc1 [Compound 2-89, N2-(4-((ethylsulfonyl)methyl)phenyl)-6-fluoro-7-(8-methyl-2,3-dihydro-1H-pyrido[2,3-b][1,4]oxazin-7-yl)quinazoline-2,5-diamine] |
| 10 nM | COc1cc2c(cc1Nc1ncc3ccc(Nc4cc(C(N)=O)ccn4)cc3n1)CN(C)CC2 [Compound 3-41, 2-({2-[(6-methoxy-2-methyl-1,2,3,4-tetrahydroisoquinolin-7-yl)amino]quinazolin-7-yl}-amino)pyridine-4-carboxamide] |
| 0.979 nM | COc1cc2c(cc1Nc1ncc3c(N)c(F)c(-c4cnc5c(c4C)NCCO5)cc3n1)CNCC2 [Compound 2-4, 6-fluoro-N~2~-(6-methoxy-1,2,3,4-tetrahydroisoquinolin-7-yl)-7-(8-methyl-2,3-dihydro-1H-pyrido[2,3-b][1,4]oxazin-7-yl)quinazoline-2,5-diamine] |
| 2.6 nM | COc1cc2c(cc1Nc1ncc3ccc(Nc4cc(S(C)(=O)=O)ccc4C)cc3n1)CN(C)CC2 [Compound 3-24, N~2~-(6-methoxy-2-methyl-1,2,3,4-tetrahydroisoquinolin-7-yl)-N~7~-[2-methyl-5-(meth-ylsulfonyl)phenyl]quinazoline-2,7-diamine] |
| 0.377 nM | COc1cc2c(cc1Nc1ncc3c(N)c(F)c(-c4cnc5c(c4C)NCCO5)cc3n1)CCN(C)C2 [Compound 2-88, 6-fluoro-N2-(7-methoxy-2-methyl-1,2,3,4-tetrahydroisoquinolin-6-yl)-7-(8-methyl-2,3-dihydro-1H-pyrido[2,3-b][1,4]oxazin-7-yl)quinazoline-2,5-diamine] |
| 111 nM | COc1cc2c(cc1Nc1ncc3ccc(NCC4(C)COC4)cc3n1)CN(C)CC2 [Compound 3-62, N~2~-(6-methoxy-2-methyl-1,2,3,4-tetrahydroisoquinolin-7-yl)-N~7-[(3-methyloxetan-3-yl)-methyl]quinazoline-2,7-diamine] |
| 0.0821 nM | CC(=O)NC1CCc2cc(Nc3ncc4c(N)c(F)c(-c5cnc6c(c5C)NCCO6)cc4n3)ccc21 (single isomer, unassigned) [Compound 2-11, (S or R)—N-(5-((5-amino-6-fluoro-7-(8-methyl-2,3-dihydro-1H-pyrido[2,3-b][1,4]oxazin-7-yl)quinazolin-2-yl)amino)-2,3-dihydro-1H-inden-1-yl)acetamide] |
| 9.36 nM | COc1cc2c(cc1Nc1ncc3ccc(N4CC(CO)OC4=O)cc3n1)CN(C)CC2 (racemic) [Compound 3-4, (S and R)-5-(hydroxymethyl)-3-{2-[(6-methoxy-2-methyl-1,2,3,4-tetrahydroisoquinolin-7-yl)amino]quinazolin-7-yl}-1,3-oxazolidin-2-one] |
| 116 nM | Cc1c(-c2cc3nc(Nc4ccccc4OC(F)(F)F)ncc3c(N)c2F)cnc2c1NCCO2 [Compound 2-8, 6-fluoro-7-(8-methyl-2,3-dihydro-1H-pyrido[2,3-b][1,4]oxazin-7-yl)-N~2~- [2-(trifluoromethoxy)phenyl] quinazoline-2,5-diamine] |
| 24.6 nM | Cc1ccc(F)cc1-c1cc2nc(Nc3ccc(CS(C)(=O)=O)cc3)ncc2c(N)c1F [Compound 2-172, 6-fluoro-7-(5-fluoro-2-methylphenyl)-N~2~-{4-[(methylsulfonyl)methyl]phenyl}quinazoline-2,5-diamine] |
| 0.0806 nM | CNC(=O)C1CCc2cc(Nc3ncc4c(N)c(F)c(-c5cnc6c(c5C)NCCO6)cc4n3)ccc21 (centres unmarked) [Compound 2-188, 5-{[5-amino-6-fluoro-7-(8-methyl-2,3-dihydro-1H-pyrido[2,3-b][1,4]oxazin-7-yl)quinazolin-2-yl]amino}-N-methyl-2,3-dihydro-1H-indene-1-carboxamide] |
| 0.0417 nM | CNC(=O)C1(c2ccc(Nc3ncc4c(N)c(F)c(-c5cnc6c(c5C)NCCO6)cc4n3)cc2)CCCC1 [Compound 2-83, 1-(4-((5-amino-6-fluoro-7-(8-methyl-2,3-dihydro-1H-pyrido[2,3-b][1,4]oxazin-7-yl)quinazolin-2-yl)amino)phenyl)-N-methylcyclopentane-1-carboxamide] |
| 97.9 nM | COc1cc2c(cc1Nc1ncc3ccc(NCc4noc(C)n4)cc3n1)CN(C)CC2 [Compound 3-52, N~2~-(6-methoxy-2-methyl-1,2,3,4-tetrahydroisoquinolin-7-yl)-N~7~-[(5-methyl-1,2,4-oxadiazol-3-yl)methyl]quinaz-oline-2,7-diamine] |
| 3.24 nM | CCC1COC(=O)N1c1cc(N)c2cnc(Nc3cc4c(cc3OC)CCN(C)C4)nc2c1 (single isomer, unassigned) [Compound 3-15, (S or R)-3-{5-amino-2-[(6-methoxy-2-methyl-1,2,3,4-tetrahydroisoquinolin-7-yl)amino]quinazolin-7-yl}-4-ethyl-1,3-oxazolidin-2-one] |
| 0.454 nM | CCS(=O)(=O)Cc1ccc(Nc2ncc3c(N)c(F)c(-c4cnc5c(c4C)NCC(C)O5)cc3n2)c(F)c1 (single isomer, unassigned) [Compound 2-129, (R or S)-7-(3,8-dimethyl-2,3-dihydro-1H-pyrido[2,3-b][1,4]oxazin-7-yl)-N2-(4-((ethylsulfonyl)methyl)-2-fluorophenyl)-6-fluoroquinazoline-2,5-diamine] |
| 0.0355 nM | COc1cc2c(cc1Nc1ncc3c(N)c(F)c(-c4cnc5c(c4C)NCCO5)c(Cl)c3n1)CN(C)CC2 [Compound 2-90, (+ and −)-8-chloro-6-fluoro-N~2~-(6-methoxy-2-methyl-1,2,3,4-tetrahydroisoquinolin-7-yl)-7-(8-methyl-2,3-dihydro-1H-pyrido[2,3-b][1,4]oxazin-7-yl)quinazoline-2,5-diamine] |
| 0.0933 nM | Cc1c(-c2cc3nc(Nc4ccc(CC(C)(C)O)cc4)ncc3c(N)c2F)cnc2c1NCCO2 [Compound 2-178, 1-(4-{[5-amino-6-fluoro-7-(8-methyl-2,3-dihydro-1H-pyrido[2,3-b][1,4]oxazin-7-yl)quinazolin-2-yl]amino}phenyl)-2-methylpropan-2-ol] |
| 241 nM | COc1cc2c(cc1Nc1ncc3ccc(N4CCCC4=O)cc3n1)CN(C)CC2 [Compound 3-1, 1-{2-[(6-methoxy-2-methyl-1,2,3,4-tetrahydroisoquinolin-7-yl)amino]quinazolin-7-yl}-pyrrolidin-2-one] |
| 0.136 nM | CNC(=O)C(F)(F)c1ccc(Nc2ncc3c(N)c(F)c(-c4cnc5c(c4C)NCCO5)cc3n2)cc1 [Compound 2-186, 2-(4-{[5-amino-6-fluoro-7-(8-methyl-2,3-dihydro-1H-pyrido[2,3-b][1,4]oxazin-7-yl)quinazolin-2-yl]amino}phenyl)-2,2-difluoro-N-methylacetamide] |
| 0.254 nM | COc1ccccc1Nc1ncc2c(N)c(F)c(-c3cnc4c(c3C)NCCO4)cc2n1 [Compound 2-71, 6-fluoro-N~2~-(2-methoxyphenyl)-7-(8-methyl-2,3-dihydro-1H-pyrido[2,3-b][1,4]oxazin-7-yl)quinazoline-2,5-diamine] |

From patent US20230399341A1, “7-PHENYL SUBSTITUTED 2-AMINOQUINAZOLINE INHIBITORS OF HPK1” (MERCK SHARP & DOHME LLC, priority 2020, published 2023)
